According to PMC6297231 (Nature Communications, 2018):

Assays:
Pfeiffer = assay: Cell viability assay; type: cell-based; conditions: Homo sapiens, 24 h; Pfeiffer (NHL); read-out: AZD5991 24h GI50
Description: (§1) Cells were plated at 3000 cells/well in 384-well white plates in corresponding cell growth media. […] Caspase-3/7 activation was subsequently determined using a Caspase-Glo 3/7 Reagent (Promega) and viability was assayed using the CellTiter-Glo Reagent (Promega) as described in manufacturer’s instructions. Dose–response curves for caspase-3/7 activation and viability were plotted and analyzed (including EC50 and GI50 determination) using GraphPad Prism.

NCI-H929 tumors = assay: NCI-H929 subcutaneous xenograft efficacy; type: in vivo, mice; conditions: single i.v. dose 100 mg kg^−1
Description: Female C.B.-17 SCID mice and female nude rats were purchased from Charles River Laboratories. […]. All xenograft studies were conducted at our Association for the Assessment and Accreditation of Laboratory Animal Care accredited facility in Waltham, MA in accordance with ethical regulations described in the guidelines established by the internal Institutional Animal Care and Use Committee. […]. In mice, drugs were dosed intravenously in a volume of 5 mL kg^-1 except for venetoclax that was dosed orally in a volume of 10 mL kg^-1. […]. Ten million MV4-11 cells were injected subcutaneously in the right flank of rats in a volume of 0.1 mL. Tumor volumes (measured by caliper), animal body weight, and tumor condition were recorded twice weekly for the duration of the study. The tumor volume was calculated using the formula: length (mm) × width (mm)^2/0.52. For efficacy studies, growth inhibition from the start of treatment was assessed by comparison of the differences in tumor volume between control and treated groups. Statistical significance was evaluated using non-parametric, unpaired, two-tailed t-test. […] For pharmacokinetic analysis, plasma samples were precipitated and diluted with acetonitrile containing internal standard and analyzed by LC–MS/MS versus a calibration curve of known concentrations.

ME1 = assay: Cell viability assay; type: cell-based; conditions: ME-1, 24 h; ME1 (AML); read-out: AZD5991 24h GI50
Description: as §1

EOL1 = assay: Cell viability assay; type: cell-based; conditions: Homo sapiens, 24 h; EOL1 (AML); read-out: AZD5991 24h GI50
Description: as §1

[1] = tested on: Eμ-Myc lymphoma cells stably expressing human Bcl-xL; assay: Apoptosis induction in Eμ-Myc lymphoma cells; conditions: overexpression of Bcl-xL, 24 h
Description: The retroviral plasmids to express human Bcl-2 family members in murine Eμ-Myc lymphoma cells are MSCV-hMCL-1-GFP, MSCV-hBCL-2-GFP, MSCV-hBCL-XL-GFP, MSCV-hBFL-1/A1-GFP, and MSCV-hBCL-w-GFP. To produce viruses, constructs of interest were co-transfected into HEK293T cells with the plasmid encoding the packaging viruses (p-CL-AMPHO provided by Phillip Darcy from Peter MacCallum Cancer Center, Melbourne, Australia) using standard calcium phosphate transient transfection technique. The retroviruses were harvested, filtered and used to infect target cells following standard procedures.
Samples were then centrifuged, washed twice with PBS and analyzed by flow cytometry in a BD LSRFortessa. FACSDiva software was used for data collection and FlowJo software for data analysis.

T47D = assay: Cell viability assay; type: cell-based; conditions: Homo sapiens, 24 h; T47D (Breast); read-out: AZD5991 24h GI50
Description: as §1

GIST T1 = assay: Cell viability assay; type: cell-based; conditions: Homo sapiens, GISTT1, 24 h; GIST T1 (GI); read-out: AZD5991 24h GI50
Description: as §1

**Q.** Which results are given for Cc1c2c(nn1C)CSCc1cc(n(C)n1)CSc1cc(c3ccccc3c1)OCCCc1c(C(=O)O)n(C)c3c-2c(Cl)ccc13 (atropisomer, axis not shown; (Ra)) [(Ra)-7]?
**A.** GI50 (Pfeiffer): 3370 nM; mice with complete tumor regression (NCI-H929 tumors): four out of four; GI50 (ME1): 220 nM; GI50 (EOL1): 12 nM; apoptosis-inducing activity [1]: blocked; GI50 (T47D): > 30000 nM; GI50 (GIST T1): > 30000 nM
